Consider 19 molecules from patent publication US20040116420A1 (priority 2001, published 2004).

In general, IC50 refers to the concentration needed to halve the response being measured. A word on the EC90: it is the point of the concentration-response curve where the effect stands at 90%. Low values mean greater potency, high ones weaker potency.

One data set addresses T1, HSV-1 protease (Human herpesvirus 1, UniProt P10210).
T1 construct: 6xHis (N); made in house; host or cells: baculovirus expression system
As to the kind of experiment: Enzymatic assay for HSV-1 protease (assembly) inhibitor, fluorescence polarization. The class given is biochemical. As to conditions: read-out: HSV-1 Enzyme inhibition IC50. Put shortly: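 Fluorescence polarization read-out: after avidin stop, cleavage of a biotinylated DTAF-labelled release-site peptide by recombinant N-His6 HSV-1 protease was compared with no-inhibitor wells. Enzyme and compound were preincubated 30 min, then substrate reacted 60 min, all at room temperature, pH 7.4 citrate buffer with TCEP.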
Background: Fluorescence polarisation rises when a labelled molecule tumbles more slowly, as on binding a larger partner.

Another data set concerns HSV-1. As to the kind of experiment: Antiviral activity, HSV-1 in Vero cells, plaque method. The class given is cell-based. To be noted: Human alphaherpesvirus 1, 20 hours, 90% inhibition of plaque formation. Put shortly: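 This is a virus-yield read-out. The culture medium was frozen at −80° C and thawed, and the plaques it formed were counted. It came from Vero monolayers infected with 50,000 pfu HSV-1 and then exposed to the compound for 20 h at 37° C. EC90 is the concentration inhibiting 90% of plaque formation relative to the untreated infected control.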

The next data set concerns Vero cells. As to the kind of experiment: Cytotoxicity, Vero cells, Alamar Blue. The class given is cell-based. To be noted: 25 μM, 20 hours. Put shortly:
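Living-cell ratio versus untreated control was read by Alamar Blue absorbance after about 6 h of dye incubation. Before that, Vero cells had received 25 μM test compound in 2% FBS-DMEM for 20 hours at 37 °C under 5% CO2.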
(In general: The colour change of resazurin is a common sign of viable cells or microbes.)

T1 sequence (P10210 1-247): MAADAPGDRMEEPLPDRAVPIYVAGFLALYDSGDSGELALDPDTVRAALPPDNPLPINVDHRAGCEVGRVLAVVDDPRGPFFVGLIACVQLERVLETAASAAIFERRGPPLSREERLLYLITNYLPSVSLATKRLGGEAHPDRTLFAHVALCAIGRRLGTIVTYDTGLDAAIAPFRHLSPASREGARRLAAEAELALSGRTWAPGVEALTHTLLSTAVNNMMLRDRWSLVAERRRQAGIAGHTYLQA

As to `Cc1c(NC(=O)OC(C)(C)C)ccc2nc(N3CCCC[C@H]3C(=O)N(C)CCc3ccncc3)oc(=O)c12` [Compound No.108, (5-Methyl-2-{2S-[methyl-(2-pyridin-4-yl-ethyl)-carbamoyl]-piperidin-1-yl}-4-oxo-4H-benzo[d][1,3]oxazin-6-yl)-carbamic acid tert-butyl ester], the IC50 on HSV-1 protease was determined as 4.4 µM. Also, the EC90 in the data set with HSV-1 is above 12.5 µM. For the same molecule, in the data set on Vero cells, the “Cell viability (% of control)” value stood at 97.9%.

In the case of `Cc1c(NC(=O)OC(C)(C)C)ccc2nc(N3C[C@H](OCc4ccccc4)C[C@H]3C(=O)NCc3ccccn3)oc(=O)c12` [Compound No.109, (2-{4R-Benzyloxy-2S-[(pyridin-2-ylmethyl)-carbamoyl]-pyrrolidin-1-yl}-5-methyl-4-oxo-4H-benzo[d][1,3]oxazin-6-yl)-carbamic acid tert-butyl ester], the IC50 on HSV-1 protease amounted to 1.4 µM. In addition, the 90% effect level in the data set with HSV-1 (EC90) was put at 8.8 µM. Also, the “Cell viability (% of control)” value in the data set with Vero cells amounted to 58.5%.

Regarding `Cc1c(NC(=O)OC(C)(C)C)ccc2nc(N3C[C@H](OCc4ccccc4)C[C@H]3C(=O)NCc3cccnc3)oc(=O)c12` [Compound No.110, (2-{4R-Benzyloxy-2S-[(pyridin-3-ylmethyl)-carbamoyl]-pyrrolidin-1-yl}-5-methyl-4-oxo-4H-benzo[d][1,3]oxazin-6-yl)-carbamic acid tert-butyl ester], the IC50 on HSV-1 protease stood at 6.3 µM. The same molecule displayed an EC90 in the data set with HSV-1 of 7.4 µM. Also, in the data set with Vero cells, the “Cell viability (% of control)” value worked out at 71.9%.

With `Cc1c(NC(=O)OC(C)(C)C)ccc2nc(N3C[C@H](OCc4ccccc4)C[C@H]3C(=O)NCc3ccncc3)oc(=O)c12` [Compound No.111, (2-{4R-Benzyloxy-2S-[(pyridin-4-ylmethyl)-carbamoyl]-pyrrolidin-1-yl}-5-methyl-4-oxo-4H-benzo[d][1,3]oxazin-6-yl)-carbamic acid tert-butyl ester], the IC50 on HSV-1 protease worked out at 3.3 µM. The same molecule came in with an EC90 with HSV-1 of 7.8 µM. Moreover, the “Cell viability (% of control)” value in the data set with Vero cells worked out at 80.4%.

In the case of `Cc1c(NC(=O)OC(C)(C)C)ccc2nc(N3C[C@H](OCc4ccccc4)C[C@H]3C(=O)NCCc3ccccn3)oc(=O)c12` [Compound No.112, {2-[4R-Benzyloxy-2S-(2-pyridin-2-ylethylcarbamoyl)-pyrrolidin-1-yl]-5-methyl-4-oxo-4H-benzo[d][1,3]oxazin-6-yl}-carbamic acid tert-butyl ester], the IC50 at HSV-1 protease stood at 2.7 µM. Further, it took 10.7 µM to reach the 90% level in the data set on HSV-1 (EC90). Besides, the “Cell viability (% of control)” value in the data set on Vero cells came out at 84.2%.

Take `Cc1c(NC(=O)OC(C)(C)C)ccc2nc(N3C[C@H](OCc4ccccc4)C[C@H]3C(=O)N(C)Cc3ccccn3)oc(=O)c12` [Compound No.113, {2-[4R-Benzyloxy-2S-(methyl-pyridin-2-ylmethyl-carbamoyl)-pyrrolidin-1-yl]-5-methyl-4-oxo-4H-benzo[d][1,3]oxazin-6-yl}-carbamic acid tert-butyl ester]: the IC50 on HSV-1 protease amounted to 10.1 µM. The molecule further had an EC90 in the data set on HSV-1 of 8.8 µM. Moreover, in the data set with Vero cells, the “Cell viability (% of control)” value is listed as 71.7%.

With `Cc1c(NC(=O)OC(C)(C)C)ccc2nc(N3C[C@H](OCc4ccccc4)C[C@H]3C(=O)N(C)CCc3ccccn3)oc(=O)c12` [Compound No.114, (2-{4R-Benzyloxy-2S-[methyl-(2-pyridin-2-yl-ethyl)-carbamoyl]-pyrrolidin-1-yl}-5-methyl-4-oxo-4H-benzo[d][1,3]oxazin-6-yl)-carbamic acid tert-butyl ester], the IC50 on HSV-1 protease is above 10 µM. In the data set on HSV-1, this molecule displayed an EC90 of 5.9 µM. Besides, the “Cell viability (% of control)” value in the data set with Vero cells is given as 76.5%.

On to `Cc1c(NC(=O)OC(C)(C)C)ccc2nc(N3C[C@H](OCc4ccccc4)C[C@H]3C(=O)N(C)CCc3cccnc3)oc(=O)c12` [Compound No.115, (2-{4R-Benzyloxy-2S-[methyl-(2-pyridin-3-yl-ethyl)-carbamoyl]-pyrrolidin-1-yl}-5-methyl-4-oxo-4H-benzo[d][1,3]oxazin-6-yl)-carbamic acid tert-butyl ester], for which the IC50 on HSV-1 protease was above 20 µM. The molecule also displayed an EC90 in the data set with HSV-1 of 6.1 µM. Moreover, in the data set with Vero cells, the “Cell viability (% of control)” value came to 71.4%.

`Cc1c(NC(=O)OC(C)(C)C)ccc2nc(N3C[C@H](OCc4ccccc4)C[C@H]3C(=O)N(C)CCc3ccncc3)oc(=O)c12` [Compound No.116, (2-{4R-Benzyloxy-2S-[methyl-(2-pyridin-4-yl-ethyl)-carbamoyl]-pyrrolidin-1-yl}-5-methyl-4-oxo-4H-benzo[d][1,3]oxazin-6-yl)-carbamic acid tert-butyl ester]: the IC50 at HSV-1 protease is above 10 µM. The same molecule displayed an EC90 with HSV-1 of 6.5 µM. Further, the “Cell viability (% of control)” value in the data set with Vero cells stood at 68.2%.

Regarding `Cc1c(NC(=O)C(C)(C)C)ccc2nc(NC(C)(C)C(=O)N(C)CCc3ccccn3)oc(=O)c12` [Compound No.136, 2,2-Dimethyl-N-(5-methyl-2-{1-methyl-1-[methyl-(2-pyridin-2-yl-ethyl)-carbamoyl]-ethylamino}-4-oxo-4H-benzo[d][1,3]oxazin-6-yl)-propionamide], the IC50 on HSV-1 protease was 4.5 µM. This molecule also displayed an EC90 in the data set with HSV-1 above 12.5 µM. The “Cell viability (% of control)” value in the data set with Vero cells came to 81.8%.

On to `COCC(=O)Nc1ccc2nc(NC(C)(C)C(=O)N(C)CCc3ccccn3)oc(=O)c2c1C` [Compound No.137, 2-[6-(2-Methoxy-acetylamino)-5-methyl-4-oxo-4H-benzo[d][1,3]oxazin-2-ylamino]-2,N-dimethyl-N-(2-pyridin-2-yl-ethyl)-propionamide], for which the IC50 on HSV-1 protease came to 4.2 µM. Also, the EC90 in the data set on HSV-1 was above 12.5 µM. Also, the “Cell viability (% of control)” value with Vero cells is given as 98.2%.

As for `Cc1c(NC(=O)c2ccccc2)ccc2nc(NC(C)(C)C(=O)N(C)CCc3ccccn3)oc(=O)c12` [Compound No.138, N-(5-Methyl-2-{1-methyl-1-[methyl-(2-pyridin-2-yl-ethyl)-carbamoyl]-ethylamino}-4-oxo-4H-benzo[d][1,3]oxazin-6-yl)-benzamide], at HSV-1 protease, the IC50 was determined as 2.8 µM. The molecule also registered an EC90 in the data set with HSV-1 above 12.5 µM. Besides, the “Cell viability (% of control)” value with Vero cells came to 84.4%.

For the molecule `Cc1c(NC(=O)c2ccco2)ccc2nc(NC(C)(C)C(=O)N(C)CCc3ccccn3)oc(=O)c12` [Compound No.139, Furan-2-carboxylic acid (5-methyl-2-{1-methyl-1-[methyl-(2-pyridin-2-yl-ethyl)-carbamoyl]-ethylamino}-4-oxo-4H-benzo[d][1,3]oxazin-6-yl)-amide], on HSV-1 protease, the IC50 was 1.4 µM. In the data set with HSV-1, this molecule returned an EC90 above 12.5 µM. Besides, the “Cell viability (% of control)” value in the data set with Vero cells came out at 90.7%.

As to `Cc1c(NC(=O)c2ccccc2[N+](=O)[O-])ccc2nc(NC(C)(C)C(=O)N(C)CCc3ccccn3)oc(=O)c12` [Compound No.140, N-(5-Methyl-2-{1-methyl-1-[methyl-(2-pyridin-2-yl-ethyl)-carbamoyl]-ethylamino}-4-oxo-4H-benzo[d][1,3]oxazin-6-yl)-2-nitro-benzamide], the IC50 on HSV-1 protease came out at 4.2 µM. The EC90 with HSV-1 was above 12.5 µM. Moreover, the “Cell viability (% of control)” value in the data set on Vero cells is recorded as 96.8%.

Turning to `Cc1c(NC(=O)c2cccc([N+](=O)[O-])c2)ccc2nc(NC(C)(C)C(=O)N(C)CCc3ccccn3)oc(=O)c12` [Compound No.141, N-(5-Methyl-2-{1-methyl-1-[methyl-(2-pyridin-2-yl-ethyl)-carbamoyl]-ethylamino}-4-oxo-4H-benzo[d][1,3]oxazin-6-yl)-3-nitro-benzamide], the IC50 on HSV-1 protease was found to be 8 µM. This molecule also showed an EC90 in the data set on HSV-1 above 12.5 µM. The “Cell viability (% of control)” value in the data set with Vero cells is reported as 80.4%.

For the molecule `Cc1c(NC(=O)c2ccc([N+](=O)[O-])cc2)ccc2nc(NC(C)(C)C(=O)N(C)CCc3ccccn3)oc(=O)c12` [Compound No.142, N-(5-Methyl-2-{1-methyl-1-[methyl-(2-pyridin-2-yl-ethyl)-carbamoyl]-ethylamino}-4-oxo-4H-benzo[d][1,3]oxazin-6-yl)-4-nitro-benzamide], on HSV-1 protease, the IC50 worked out at 1.3 µM. Further, in the data set with HSV-1, the EC90 amounted to 10.4 µM. Moreover, the “Cell viability (% of control)” value with Vero cells was 61.0%.

With `Cc1c(NC(=O)c2cccc(C#N)c2)ccc2nc(NC(C)(C)C(=O)N(C)CCc3ccccn3)oc(=O)c12` [Compound No.143, 3-Cyano-N-(5-methyl-2-{1-methyl-1-[methyl-(2-pyridin-2-yl-ethyl)-carbamoyl]-ethylamino}-4-oxo-4H-benzo[d][1,3]oxazin-6-yl)-benzamide], the IC50 on HSV-1 protease came to 3.7 µM. The same molecule registered a concentration for an effect of 90% (EC90) in the data set on HSV-1 above 12.5 µM. Further, the “Cell viability (% of control)” value in the data set on Vero cells came to 86.9%.

For the molecule `Cc1c(NC(=O)c2ccccc2C(F)(F)F)ccc2nc(NC(C)(C)C(=O)N(C)CCc3ccccn3)oc(=O)c12` [Compound No.144, N-(5-Methyl-2-{1-methyl-1-[methyl-(2-pyridin-2-yl-ethyl)-carbamoyl]-ethylamino}-4-oxo-4H-benzo[d][1,3]oxazin-6-yl)-2-trifluoromethyl-benzamide], on HSV-1 protease, the IC50 was determined as 2.3 µM. Also, in the data set on HSV-1, the EC90 is above 12.5 µM. Also, the “Cell viability (% of control)” value with Vero cells is listed as 76.1%.

Consider `Cc1c(NC(=O)c2cccc(C(F)(F)F)c2)ccc2nc(NC(C)(C)C(=O)N(C)CCc3ccccn3)oc(=O)c12` [Compound No.145, N-(5-Methyl-2-{1-methyl-1-[methyl-(2-pyridin-2-yl-ethyl)-carbamoyl]-ethylamino}-4-oxo-4H-benzo[d][1,3]oxazin-6-yl)-3-trifluoromethyl-benzamide], for which the IC50 at HSV-1 protease came to 1.3 µM. Besides, the EC90 with HSV-1 was found to be 6 µM. Besides, the “Cell viability (% of control)” value in the data set with Vero cells stood at 19.7%.
